These results are taken from patent US12594271B2, “Combination therapy for cancer” (Health Research, Inc., priority 2019, dated 2026).

Molecules are shown by their SMILES. Entries after “also recorded” stand apart in the source; their conditions may differ.

Data set [1] deals with E0771. Put plainly: E0771 mammary tumor model: bone marrow multi-spectral flow cytometry. The class given is in vivo. To be noted: endpoint. The protocol: BRQ Alters the Bone Marrow Myeloid Compartment in Triple Negative Breast Cancer Model. This study was performed in another mammary tumor model, termed E0771. The experimental design is as described in FIG. 12 and bone marrow cells were collected at endpoint, as in FIG. 19 for flow cytometric analysis. Here, BM samples were analyzed by multi-spectral high dimensional flow cytometry using a Cytek Aurora Spectral Flow Cytometer and the data are illustrated as a TSNE plot (i.e, t-distributed Stochastic Neighbor). Circled regions refer to the data of interest.
On the technique in general: A flow cytometer gives signals particle by particle.

The test system of data set [2] is MDSCs. Put plainly: MDSC suppression assay: inhibition of T cell proliferation by in vitro generated MDSCs. Format: cell-based, mouse. How it is done: FIG. 2. […] (A) MDSCs were produced in vitro from mouse bone marrow cells using GM-CSF and G-CSF±BRQ (1 μM) or ATRA (10 μM) at the start of the 4-day culture. Cells tested for their ability to inhibit T cell proliferation (1:1 ratio), as in FIG. 5. Fresh BM=Uncultured bone marrow cells. (B) Similar to A, except that uridine (200 μM) was added to rescue the effect of BRQ. (C) Expression of IRF8 (upper) or SLFN4 (lower) was analyzed by qRT-PCR in Lin^− BM cells cultured as in A for 2 days. Data normalized to the vehicle.
(§1) In Vitro Development of MDSCs. Unfractionated mouse bone marrow cells were cultured in dishes with recombinant mouse G-CSF and recombinant mouse GM-CSF (40 ng/ml of each cytokine) for 96 hours to produce MDSCs, as described (Marigo et al. Immunity 32:790-802, 2010). After culture, cells were collected and analyzed by flow cytometry for the indicated cell surface markers. Uncultured or fresh bone marrow (BM) cells served as a negative control.
Cultured Cells Develop Potent Immunosuppressive Capacity. Using the methods described for FIG. 4, experiments were then performed to determine whether the cells generated from this BM culture system functionally behaved as MDSCs, based on their ability to inhibit T cell proliferation in vitro. To that end, fresh BM (i.e., no in vitro culture) or cultured BM cells (i.e., MDSCs at two different MDSC-to-T cell ratios of 1:1 or 1:2) were co-mixed in 96-well plates with CellTrace Violet (CTV)—stained syngeneic naïve splenocytes as a source of T cells and stimulated with or without soluble agonistic anti-CD3 monoclonal antibody (mAb) (1 μg/ml) for 72 hours. After co-culture, CTV dye dilution in the gated CD4^+ or CD8^+ T cell fractions within the splenocyte populations was analyzed by flow cytometry to determine the extent of proliferation based on dye dilution. In FIG. 5, top panels show CTV dye dilution, as determined by flow cytometry and depicted as a histogram; bottom panels indicate the percentage of proliferation, based on quantification of the histogram data. […]

The test system of data set [3] is MDSCs. Kind of data set: Phenotype, viability and morphology of in vitro generated MDSC cultures. Format: cell-based, mouse. How it is done:
as §1
Effect of BRQ Treatment on In Vitro Generated MDSCs. As in FIG. 4, MDSCs were generated in vitro, but now with or without (vehicle) the concurrent addition of brequinar (BRQ) (1 μM) at the start of the culture. After culture, cells were collected and analyzed by flow cytometry for the indicated cell surface markers. Uncultured (fresh) BM cells served as a negative control. Viable cells were enumerated by trypan blue dye exclusion (bottom left panel, % viability; bottom right panel, total viable cells recovered).
Cells Treated with BRQ Appear More Mature Morphologically and Phenotypically. Methods were the same as in FIG. 6. MDSCs were generated in vitro with or without BRQ. Afterwards, cells were collected and analyzed morphologically by Wright-Giemsa staining of cytospin-prepared slides. Left top panel, representative photomicrograph images [(arrows indicate representative immature myeloid (−BRQ) vs. mature (+BRQ) cell types)]; Left bottom panel, the % of each cell type was quantified as follows. Cells were classified into 3 main morphologic cell types, as shown. For the lower panel, 300 cells were analyzed per random field and 3 separate fields were analyzed (totaling 900 cells). The average number of each cell type was determined by dividing by 3, and the data were converted to a percentage within the total population. Using the in vitro assay described previously to produce MDSCs, the CD11b^+Ly6C^lo Ly6G^+ subset (also known as PMN-MDSCs) was analyzed for cell surface CD101 expression by flow cytometry on cultures without BRQ (labeled here as ‘GM-CSF+G-CSF’) or with BRQ. Isotype control staining was included as a negative control for the specificity of CD101 reactivity. Middle panel, representative histogram; right panel, mean fluorescence intensity (MFI) data quantified from 2 separate experiments.

Where [4] appears, read: BRQ 1 μM, trypan blue dye exclusion.
[5] abbreviates: bone marrow cells cultured with BRQ, morphologic analyses.
[6] abbreviates: cultures with BRQ, Wright-Giemsa staining.

In the case of `Cc1c(-c2ccc(-c3ccccc3F)cc2)nc2ccc(F)cc2c1C(=O)O` [BRQ, 6-Fluoro-2-(2′-fluoro-[1,1′-biphenyl]-4-yl)-3-methylquinoline-4-carboxylic acid], in data set [1], the “frequency of granulocyte progenitors (GPs) in bone marrow” value is listed as “reduced the frequency of granulocyte progenitors” and the “frequency of monocyte progenitors (MPs) in bone marrow” value is on record as “increased the frequency of monocyte progenitors”. In addition, the “ability of in vitro generated MDSCs to inhibit CD4+ or CD8+ T cell proliferation” value in data set [2] (BRQ 1 μM at start of 4-day culture, MDSC:T cell 1:1) was “inhibits MDSC-mediated immune suppression in vitro; also recorded: more effective than ATRA in limiting the formation of immune suppressive cells in vitro; also recorded: significantly reduced the ability of these in vitro-generated MDSCs to inhibit T cell proliferation; also recorded: mitigates MDSC suppressive activity; also recorded: significantly less suppressive to CD4^+ or CD8^+ T cell proliferation compared to cultures containing ATRA”. The “ability of in vitro generated MDSCs to inhibit T cell proliferation, uridine rescue” value in data set [2] (BRQ 1 μM plus extracellular uridine 200 μM) was “exogenously supplied uridine blocked the effect of BRQ; also recorded: the addition of uridine antagonized the effect of BRQ and restored MDSC suppressive activity”. In addition, the “generation of CD11b+Gr-1+ cells” value in data set [3] (BRQ 1 μM, flow cytometry) is recorded as “did not substantially alter”. In data set [3] (setting [4]), the cell viability result is given as “not significantly altered” and the “number of live cells recovered” value is recorded as “substantially reduced”. Moreover, in data set [3] (setting [5]), the “mature myeloid cells (mainly neutrophils and macrophages)” value was “corresponding increase in mature myeloid cells”; the “reduction in immature myeloid cells” value is recorded as 75%. Also, in data set [3] (setting [6]), the immature cell types entry is reported as “reduction in immature cell types”, the proportion of macrophages result is “no demonstrable effect” and the “proportion of segmented neutrophils” value is recorded as “increased the proportion of segmented neutrophils”. Further, in data set [3] (cultures with BRQ, flow cytometry), the “cell surface CD101 expression (MFI) on CD11b+Ly6CloLy6G+ subset” value was “significantly increased the expression of CD101”.
